Reference: US8318799B2, “Therapeutic agent for substance dependence” (National University Corporation Kyushu University, priority 2004, dated 2012)

Tests used:
male Wister/ST rats [1] = experiment: methamphetamine-seeking behavior induced by drug-associated cue (drug self-administration procedure, after extinction); format: in vivo, rat; settings: for antagonism in cue-induced methamphetamine-seeking behavior on coadministration with the compound of the present invention: 30 minutes before cue, FIG. 7
Excerpt: (§1) First, an experimental animal is allowed to learn the drug self-administration behavior of pressing a lever to attain a substance. The animal is given a substance-containing solution simultaneously with a light-tone stimulus. After the animal is allowed to learn the substance self-administration behavior, the substance-containing solution is replaced by physiological saline. The behavior of eagerly pressing the lever for acquiring the substance comes to be observed in the experimental animal having learned the substance self-administration behavior. This behavior is regarded as substance-seeking behavior. […] However, the substance-seeking behavior will recur by the same light-tone stimulus (drug-associated stimuli) used during the self-administration training to the experimental animal or by administrating a substance inducing the central stimulant effect. This experimental system was used to examine the effect of various compounds.
(§2) Using methamphetamine as an addictive substance, the following experiments were carried out according to a method described in Neuropsychopharmacology, 29, 1470-1478 (2004).
(§3) A catheter for self-administration of methamphetamine (inner diameter of 0.5 mm, outer diameter of 1.0 mm) was inserted into the right jugular vein of male Wister/ST rats (250 to 350 g), and the end of the catheter was anchored to just outside the right atrium. An operant box used in the experiment was equipped with 2 levers. One is an active lever by which when pressed once (fixed-ratio 1 (FR1)), infusions of a very low dose of methamphetamine (0.02 mg per injection) was paired with onset of a 6-sec tone (70 dB/7 kHz) and light (300 lux) compound stimulus.
(§4) After the animal was allowed to get methamphetamine self-administration behavior (methamphetamine-taking behavior) by the self-administration experiment for 10 days (2 hours per session), physiological saline was substituted for methamphetamine, to carry out an extinction process for 5 days (1 hour per session without drug-associated cue).
On day 6 of the extinction process, substance-seeking behavior (“craving”) was induced by drug-associated cue (tone and light) or by administering a low dose of methamphetamine (1.0 mg/kg, intraperitoneal (i.p.) administration).
Thirty minutes before this stimulation with the drug-associated cue or by the administration of a low dose of methamphetamine, […] administration of the compound of the present invention (0.32, 1.0 mg/kg, i.p.) was carried out, and a change in the methamphetamine-seeking behavior induced by drug-associated cue or by forced administration of methamphetamine was observed. […]

male Wister/ST rats [2] = experiment: influence on occurrence of substance-seeking behavior by the compound itself; format: in vivo, rat; settings: high dose 10 mg/kg i.p.; FIG. 6
male Wister/ST rats [3] = experiment: methamphetamine-seeking behavior induced by forced administration of a low dose of methamphetamine (drug self-administration procedure, after extinction); format: in vivo, rat
Excerpt: as §1, §2, §3
as §4, with “cue). […]” for “cue).”

[4] = Eur. J. Pharmacol. 421, 181-189 (2001); cited from earlier work
male Wister/ST rats [5] = experiment: influence on methamphetamine-taking behavior (methamphetamine self-administration); format: in vivo, rat; settings: 1.0 mg/kg intraperitoneally; FIG. 5
Excerpt: FIG. 5 is a graph showing the influence of the compound of the present invention on methamphetamine self-administration.
as §3, §4
For examining the influence of the compound of the present invention on methamphetamine-taking behavior, 1.0 mg/kg of the compound of the present invention was administered intraperitoneally.

## CN1CCc2cc(Cl)c(O)cc2[C@@H](c2ccccc2)C1.Cl [SCH23390, R-(+)-7-chloro-8-hydroxy-3-methyl-1-phenyl-2,3,4,5-tetrahydro-1H-3-benza zepine hydrochloride, reference compound]
Male Wister/ST rats [1]; SCH23390 0.0001 mg/kg s.c. with the compound of the present invention (0.32, 1.0 mg/kg i.p.)
  antagonism in cue-induced methamphetamine-seeking behavior on coadministration with the compound of the present invention: showed a tendency to be antagonized

## CCCNC(CCC)Cc1cc2ccccc2o1 (single isomer, unassigned; (-)) [the compound of the present invention, (−)-1-(benzofuran-2-yl)-2-propylaminopentane]
Male Wister/ST rats [2]
  occurrence of methamphetamine-seeking behavior after the compound alone: although weak, caused methamphetamine-seeking behavior
Male Wister/ST rats [3]; repeated administration 1.0 mg/kg i.p. in the extinction process for 5 days, FIG. 4
  methamphetamine-seeking behavior induced by forced administration of methamphetamine: suppressed significantly
Male Wister/ST rats [3]; single administration 0.32, 1.0 mg/kg i.p., 30 minutes before methamphetamine 1.0 mg/kg i.p., day 6 of extinction, FIG. 2
  methamphetamine-seeking behavior (number of active lever-pressings, 30 minutes) induced by forced administration of methamphetamine: suppressed significantly and dose-dependently
[4]
  reduction in spontaneous motor activity induced by reserpine: improves
Male Wister/ST rats [1]; repeated administration 1.0 mg/kg i.p. in the extinction process for 5 days, FIG. 3
  methamphetamine-seeking behavior induced by drug-associated cue: suppressed significantly
Male Wister/ST rats [1]; single administration 0.32, 1.0 mg/kg i.p., 30 minutes before stimulation, day 6 of extinction, FIG. 1
  methamphetamine-seeking behavior (number of active lever-pressings, 30 minutes) induced by drug-associated cue: suppressed significantly and dose-dependently
Male Wister/ST rats [5]
  influence on methamphetamine-taking behavior (number of active lever pressings for self-administration): did not exert any influence

## CCN1CCCC1CNC(=O)c1cc(S(=O)(=O)CC)ccc1OC (stereo not shown) [sultopride, reference compound]
Male Wister/ST rats [3]; sultopride 10 mg/kg i.p. with the compound of the present invention (0.32, 1.0 mg/kg i.p.), 30 minutes before low dose of methamphetamine, FIG. 8
  antagonism in methamphetamine-induced methamphetamine-seeking behavior on coadministration with the compound of the present invention: not
Male Wister/ST rats [1]; sultopride 10 mg/kg i.p. with the compound of the present invention (0.32, 1.0 mg/kg i.p.)
  antagonism in cue-induced methamphetamine-seeking behavior on coadministration with the compound of the present invention: not
